What was measured:
Phytophthora infestans = format: in vivo; settings: 10 g/ha, single active compound
[1] = tested on: Diabrotica balteata - larvae in the soil; test: Critical concentration test/soil insects, Diabrotica balteata (Example Q); format: in vivo; settings: 10.00 ppm in soil; efficacy calculated from number of emerged maize plants
Description: To produce a suitable preparation of active compound, 1 part by weight of active compound is mixed with the stated amount of solvent, the stated amount of emulsifier is added and the concentrate is diluted with water to the desired concentration. Here, the concentration of the active compound in the preparation is almost irrelevant; only the amount by weight of active compound per volume unit of soil, which is stated in ppm (mg/l), matters. The soil is filled into 0.5 l pots and these are allowed to stand at 20° C.
Immediately after preparation, 5 maize corns are placed into each pot. After 3 days, the test insects are placed into the treated soil. After a further 7 days, the efficacy is determined. The efficacy is calculated from the number of maize plants which have emerged.

[2] = tested on: green rice leaf hopper (Nephotettix cincticeps); test: Nephotettix test (rice seedling dip); format: in vivo; settings: concentration 0.1 %
Description: (§1) To produce a suitable preparation of active compound, 1 part by weight of an active compound or an active compound combination is mixed with the stated amounts of solvent and emulsifier, and the concentrate is diluted with water to the desired concentration.
Rice seedlings (Oryza sativa) are treated by being dipped into the active compound preparation of the desired concentration and are populated with the green rice leaf hopper (Nephotettix cincticeps) while the leaves are still moist.
After the desired period of time, the kill in % is determined. 100% means that all the leaf hoppers have been killed; 0% means that none of the leaf hoppers have been killed.

[3] = tested on: caterpillars of the diamondback moth (Plutella xylostella); test: Plutella test (cabbage leaf dip); format: in vivo
Description: as §1
Cabbage leaves (Brassica oleracea) are treated by being dipped into the preparation of active compound of the desired concentration and are populated with caterpillars of the diamondback moth (Plutella xylostella) while the leaves are still moist.
After the desired period of time, the kill in % is determined 100% means that all caterpillars have been killed; 0% means that none of the caterpillars have been killed.

[4] = tested on: Diabrotica balteata larvae in soil; test: Critical concentration test/soil insects, Diabrotica balteata; format: in vivo; settings: Diabrotica balteata, 168 h; 20.0 ppm in soil, 7 days after infestation; read-out: Kill in %
Description: (§2) To produce a suitable preparation of active compound, 1 part by weight of the active compound or the active compound mixture is mixed with the stated amounts of solvent and emulsifier, and the concentrate is diluted with water to the desired concentration.
(§3) The active compound preparation is mixed intimately with soil. Here, the concentration of the active compound in the preparation is almost irrelevant; only the amount by weight of active compound or active compound mixture per volume unit of soil, which is stated in ppm (mg/l), matters.
Soil is filled into 0.5 l pots and these are allowed to stand at 20° C. Immediately after preparation, 5 pre-germinated maize corns are placed into each pot. After 2 days, the test insects are placed into the treated soil. After a further 7 days, the kill in % is determined. 100% means that all test insects have been killed; 0% means that none of the test insects have been killed.

Pyrenophora teres = Pyrenophora teres test (barley)/protective; format: in vivo; settings: 18.75 g/ha, single active compound
Description: as §1, with “of” for “of an”, “or” for “or an”, “desired concentration, or a commercial formulation of active compound or active compound combination is diluted with water to the desired” for “desired”
To test for protective activity, young plants are sprayed with the active compound preparation at the stated application rate. After the spray coating has dried on, the plants are sprayed with a conidia suspension of Pyrenophora teres. The plants remain in an incubation cabin at 20° C. and 100% relative atmospheric humidity for 48 hours.
The plants are then placed in a greenhouse at a temperature of approximately 20° C. and a relative atmospheric humidity of approximately 80%.
(§4) Evaluation is carried out 7 days after the inoculation. 0% means an efficacy which corresponds to that of the control, whereas an efficacy of 100% means that no infection is observed.

Botrytis cinerea = test: Botrytis test (bean)/protective; format: in vivo; settings: single active compound
Description: as §1, with “of” for “of an”, “or” for “or an”, “desired concentration, or a commercial formulation of active compound or active compound combination is diluted with water to the desired” for “desired”
To test for protective activity, young plants are sprayed with the active compound preparation at the stated application rate. After the spray coating has dried on, 2 small pieces of agar colonized by Botrytis cinerea are placed onto each leaf. The inoculated plants are placed in a dark chamber at approximately 20° C. and 100% relative atmospheric humidity.
2 days after the inoculation, the size of the disease spots on the leaves is evaluated. 0% means an efficacy which corresponds to that of the control, whereas an efficacy of 100% means that no infection is observed.

[5] = tested on: Phaedon cochleariae larvae; test: Critical concentration test/root-systemic action, Phaedon cochleariae; format: in vivo; settings: 72 h, 20.00 ppm in soil, root-systemic, 3 days after infestation, read-out: Kill in %
Description: as §2, §3
Soil is filled into 250 ml pots and these are planted with cabbage (Brassica oleracea). The active compound or the active compound combination can thus be taken up by the plant roots from the soil and transported into the leaves.
After 7 days, the leaves are populated with the abovementioned test animals. After a further 3 days, the kill in % is determined. 100% means that all test insects have been killed; 0% means that the number of insects which are still alive is the same as in the untreated control.

Spodoptera frugiperda = test: Critical concentration test/soil insects, Spodoptera frugiperda; format: in vivo; settings: 120 h, 20.00 ppm in soil, 5 days after infestation, read-out: Kill in %
Description: as §2, §3
Soil is filled into 0.5 l pots and these are allowed to stand at 20° C. Immediately after preparation, 3 pre-germinated maize corns are placed into each pot. After the maize corns have emerged, boring sleeves are placed onto the pots. 9 days after preparation, the maize is populated with the test insects. After a further 5 days, the kill in % is determined. 100% means that all test insects have been killed; 0% means that the number of insects which are still alive is the same as for the untreated control.

[6] = tested on: Erysiphe graminis f.sp. hordei; test: Erysiphe test (barley)/protective; format: in vivo; settings: 18.75 g/ha, single active compound
Description: as §1, with “of” for “of an”, “or” for “or an”, “desired concentration, or a commercial formulation of active compound or active compound combination is diluted with water to the desired” for “desired”
To test for protective activity, young plants are sprayed with the preparation of active compound at the stated application rate.
After the spray coating has dried on, the plants are dusted with spores of Erysiphe graminis f.sp. hordei.
The plants are placed in a greenhouse at a temperature of approximately 20° C. and a relative atmospheric humidity of approximately 80% to promote the development of mildew pustules.
as §4

Fusarium culmorum = Fusarium culmorum test (wheat)/seed treatment; format: in vivo; settings: 75 g/ha, dry seed dressing, approximately 3 weeks after sowing
Description: The active compounds are applied as a dry dressing. They are prepared by extending the active compound in question with ground minerals to give a finely pulverulent mixture which ensures even distribution on the surface of the seeds.
For the dressing, the infected seeds are shaken with the dressing in a closed glass bottle for 3 minutes.
2×100 seeds of the wheat are sown at a depth of 1 cm into standard soil, and the wheat is cultivated in a greenhouse at a temperature of approximately 18° C. and at a relative atmospheric humidity of approximately 95% in seed containers receiving 15 hours of light per day.
The evaluation of the plants for symptoms is carried out approximately 3 weeks after sowding. 0% means an efficacy which corresponds to that of the control, whereas an efficacy of 100% means that no infection is observed.

Sphaerotheca fuliginea = test: Sphaerotheca test (cucumber)/protective; format: in vivo; settings: 10 g/ha, single active compound, 10 days after inoculation
Description: as §1, with “of” for “of an”, “or” for “or an”, “desired concentration, or a commercial formulation of active compound or active compound combination is diluted with water to the desired” for “desired”
To test for protective activity, young plants are sprayed with the commercial active compound preparation at the stated application rate. After the spray coating has dried on, the plants are inoculated with an aqueous spore suspension of Sphaerotheca fuliginea. The plants are then placed in a greenhouse at approximately 23° C. and a relative atmospheric humidity of approximately 70%.
Evaluation is carried out 10 days after the inoculation. 0% means an efficacy which corresponds to that of the control, whereas an efficacy of 100% means that no infection is observed.

[7] = tested on: Heliothis virescens caterpillars; test: Heliothis virescens test (soya bean shoot dip); format: in vivo; settings: concentration 0.004 %
Description: as §1
Soya bean shoots (Glycine max) are treated by being dipped into the active compound preparation of the desired concentration and are populated with Heliothis virescens caterpillars while the leaves are still moist.
After the desired period of time, the kill in % is determined. 100% means that all caterpillars have been killed; 0% means that none of the caterpillars have been killed.

[8] = tested on: larvae of the mustard beetle (Phaedon cochleariae); test: Phaedon larvae test (cabbage leaf dip); format: in vivo; settings: concentration 0.004 %
Description: as §1
Cabbage leaves (Brassica oleracea) are treated by being dipped into the preparation of active compound of the desired concentration and are populated with larvae of the mustard beetle (Phaedon cochleariae) while the leaves are still moist.
After the desired period of time, the kill in % is determined. 100% means that all beetle larvae have been killed; 0% means that none of the beetle larvae have been killed.

green peach aphid = test: Myzus test (cabbage leaf dip); format: in vivo, Myzus (green peach aphid); settings: concentration 0.1 %
Description: as §1
Cabbage leaves (Brassica oleracea) which are heavily infested by the green peach aphid are treated by being dipped into the active compound preparation of the desired concentration.
After the desired period of time, the kill in % is determined. 100% means that all aphids have been killed; 0% means that none of the aphids have been killed.

SMILES: Cc1ccc(C(C)NC(=O)C(NC(=O)OC(C)C)C(C)C)cc1 (racemic) [SZX722]
- Efficacy in % (Phytophthora infestans): 88%

SMILES: OC(Cc1ccccc1Cl)(Cn1nc[nH]c1=S)C1(Cl)CC1 (stereo not shown) [(49)]
- Kill in % at active compound concentrations in ppm [1]: 10.00 ppm = 0%

SMILES: CN(C)C(=S)SSC(=S)N(C)C [TMTD]
- Kill in % [2]: 0%
- Kill in % ([3]; concentration 0.1 %): 0%
- pest or weed control at 20 ppm [4]: 0%

SMILES: CO/C=C(/C(=O)OC)c1ccccc1Oc1cc(Oc2ccccc2C#N)ncn1 [azoxystrobin]
- Efficacy in % (Phytophthora infestans): 74%
- Efficacy in % calculated/found (Pyrenophora teres): 0%
- Efficacy in % (Botrytis cinerea; 40 g/ha): 42%
- pest or weed control at 20 ppm [4]: 0%
- pest or weed control at 20 ppm [5]: 0%
- pest or weed control at 20 ppm (Spodoptera frugiperda): 0%

SMILES: CC(C)(C)C(O)C(Oc1ccc(-c2ccccc2)cc1)n1cncn1 (stereo not shown) [bitertanol]
- Efficacy in % calculated/found [6]: 0%
- Efficacy in % (Botrytis cinerea; 500 g/ha): 30%
- pest or weed control at 20 ppm [4]: 0%
- pest or weed control at 20 ppm [5]: 0%
- pest or weed control at 20 ppm (Spodoptera frugiperda): 0%

SMILES: CC(C1CC1)C(O)(Cn1cncn1)c1ccc(Cl)cc1 (stereo not shown) [cyproconazole]
- Efficacy in % (Fusarium culmorum): 1%
- Kill in % ([3]; concentration 0.004 %): 0%
- Efficacy in % (Sphaerotheca fuliginea): 70%
- Kill in % [7]: 0%
- pest or weed control at 20 ppm [4]: 0%
- Kill in % [8]: 10%
- pest or weed control at 20 ppm (Spodoptera frugiperda): 0%

SMILES: N#Cc1c[nH]cc1-c1cccc(Cl)c1Cl [fenpiclonil]
- Kill in % (green peach aphid): 0%
- Kill in % ([3]; concentration 0.1 %): 0%
- pest or weed control at 20 ppm [4]: 0%
- pest or weed control at 20 ppm [5]: 0%
- pest or weed control at 20 ppm (Spodoptera frugiperda): 0%
